The results in this text go back to paper PMC8129133, “Polymer-free corticosteroid dimer implants for controlled and sustained drug delivery” (Nature Communications, 2021).

The nature of series [1]: Shelf-life stability study (polarized light microscopy). The format is physicochemical. As to conditions: extruded amorphous implants. The procedure: Extruded Dex-TEG-Dex implants were assessed for shelf-life stability. Melt extruded Dex-TEG-Dex materials were packaged in the lumen of 30 G needles (BD) and stored in an anhydrous pouch containing desiccant. Samples were aged at 25 °C, 40 °C, and 70 °C for up to 4 months, corresponding to real-time aging of 126 days (25 °C, 4 months), 356 days (40 °C, 4 months), and 2851 days (70 °C, 4 months). At specified time points, samples were removed from their packaging and assessed by polarized light microscopy as outlined below.
Samples were placed on glass slides, cross-sectioned as needed and imaged with a polarizing light microscope (SM-LUX-POL, Leitz) equipped with a Leica EC4 digital camera (Leica) using LAS EZ v.3.2.0 software (Leica). Additionally, a λ-plate compensator was used to assist in evaluation of features with weak birefringence.

For series [2], the system named is vascular endothelial growth factor (VEGF) induced blood-retinal barrier breakdown. The experiment in a line: Rabbit pharmacodynamics, VEGF-induced vascular leakage. In kind it is in vivo, Dutch Belted rabbits. The procedure: Pharmacodynamics. Rabbit pharmacodynamics studies were performed at Absorption Systems California (San Diego, CA, USA). All studies were conducted in compliance with relevant ethical regulations, including the USDA Animal Welfare Act (i.e., relevant sections of Section 9, Part 1, 2, and 3 of the Code of Federal Regulations) and in compliance with Absorption Systems’ Animal Welfare Assurance filed with the National Institutes of Health. Protocols were reviewed and approved by Absorption Systems’ Institutional Animal Care and Use Committee (IACUC) prior to the initiation of procedures. Treatment of animals was in accordance with conditions specified in the Guide for Care and Use of Laboratory Animals (NRC, 2011, National Academy Press). Animals were anesthetized with intramuscular ketamine hydrochloride (15-20 mg/kg) and xylazine (5 mg/kg) prior to test article injection or vascular leakage induction. The eye area was surgically prepped with 5% betadine and rinsing with balanced salt solution, followed by administration of 1–2 drops of topical proparacaine hydrochloride (0.5%). […] Test articles (27 G × 6 mm, 30 G × 6 mm, and 32 G × 6 mm Dex-TEG-Dex extruded rods, or Ozurdex®) were injected intravitreally in Dutch Belted rabbits (male, 1.84–2.49 kg, 5–6 months) on Day 0 and vascular leakage was induced by an intravitreal injection of VEGF (500 ng/eye) at acute and chronic timepoints (1 week, 2.5, 4.5, 6, 9, 12, and/or 18 months) post-implantation. Post-injection analgesia was provided by 0.02-0.05 mg/kg IM/SC buprenorphine. Negative control rabbits received a sham injection while positive control rabbits received a 2 mg solution dose of triamcinolone acetonide (Kenalog-40). Ophthalmic exams, including fundus microscopy and slit lamp microscopy, were carried out over the 3 days post-VEGF induction and vascular leakage was measured by fluorescein angiography on the third day post-VEGF induction. Eyes were graded based on fundus and fluorescein angiography images using a scoring system as follows[76]: 0 – major vessels straight, some tortuosity of smaller vessels, no vessel dilation; 1 – increased tortuosity of major vessels and/or some vessel dilation; 2 – leakage between major vessels, significant vessel dilation; 3 – leakage between major and minor vessels, minor vessels still visible; and 4 – leakage between major and minor vessels, minor vessels poorly/not visible.

With `C[C@@H]1C[C@H]2[C@@H]3CCC4=CC(=O)C=C[C@]4(C)[C@@]3(F)[C@@H](O)C[C@]2(C)[C@@]1(O)C(=O)COC(=O)OCCOCCOCCOC(=O)OCC(=O)[C@@]1(O)[C@H](C)C[C@H]2[C@@H]3CCC4=CC(=O)C=C[C@]4(C)[C@@]3(F)[C@@H](O)C[C@@]21C` [Dex-TEG-Dex], the “crystallinity after shelf-life storage” value in series [1] was “no evidence of crystallinity”. The “efficacy against VEGF-induced changes” value in series [2] (1 week, Dex-TEG-Dex as 30 G × 6 mm implant) is given as “efficacious”; in series [2] (32 G × 6 mm implant, 6 months), “reduced efficacy”. For the same compound, the duration of efficacy in series [2] (27 G × 6 mm implant, all time points tested) is at least 18 months; in series [2] (Dex-TEG-Dex as 30 G × 6 mm implant, VEGF challenge) it was 9–12 months; in series [2] (Dex-TEG-Dex as 30 G × 6 mm implant, VEGF challenge, listed as dexamethasone dimer) it was over 6 months. In series [2] (32 G × 6 mm implant), the “duration of inhibition of VEGF-induced effects” value was at least 4.5 months.
